Reference: US20220062296A1, “COMBINATIONS OF GABAA ALPHA 5 AGONISTS AND SV2A INHIBITORS AND METHODS OF USING IN THE TREATMENT OF COGNITIVE IMPAIRMENT” (AGENEBIO, INC., priority 2020, published 2022)

Key:
[1] = tested on: aged-impaired (AI) Long-Evans rats; experiment: Morris Water Maze (MWM) retention trial, levetiracetam; type: in vivo, rat; conditions: for time spent in the target quadrant (percentage of total swimming time): retention trial 24 hours after training
Experimental: Six aged-impaired (AI) Long-Evans rats (as characterized above) were tested for their memory of new spatial information in the Morris water maze (MWM), under different drug/control treatment conditions (vehicle control and two different dosage levels of levetiracetam). A retention trial was performed after the training trials, as described below. The MWM apparatus consists of a large, circular pool (diameter 1.53 m; height, 0.58 m) filled with water (27° C.) that is made opaque through the addition of non-toxic pigment or some other substance. In the typical “hidden platform” version of the test, rats are trained to find a camouflaged white escape platform (height, 34.5 cm) that is positioned in the center of one quadrant of the maze about 1.0 cm below the water surface. This platform can be retracted to the bottom of the tank or raised to its normal position from outside the maze during behavioral testing. The location of the platform remains constant from trial to trial. Because there are no local cues that mark the position of the platform, the rat's ability to locate it efficiently from any starting position at the perimeter of the pool depends on using information surrounding the maze. The maze is surrounded by black curtains to which white patterns are affixed to provide a configuration of spatial cues. A second platform (height 37.5 cm), with its surface painted black is elevated 2 cm above the water surface during cue training to control for factors unrelated to cognition. The behavior of a rat in the pool is recorded by a camera that is suspended 2.5 m above the center of the pool. The camera is connected to a video tracking system (HVS Image Advanced Tracker VP200) and a PC computer running HVS software developed by Richard Baker of HVS Image, Hampton, UK. […] On each training trial, the rat was released in the maze from one of four equally spaced starting positions around the perimeter of the pool. […] In the retention trial, the time the AI rats spent swimming in the target quadrant is measured and further plotted as a percentage of total swimming time. […]

DG/CA3 of aMCI subjects = experiment: fMRI activity in DG/CA3 during explicit 3-alternative forced choice task; type: in vivo, human; conditions: for DG/CA3 hyperactivity: two weeks
somatostatin in DG hilus = experiment: Somatostatin immunohistochemistry, SOM-immunoreactive neurons in DG hilus; type: in vivo, rat; conditions: 10 mg/kg/day, four weeks, osmotic mini-pumps; AI-LEV vs AI-VEH p<0.01
Description: Tissue was labeled with anti-SOM antiserum (Santa Cruz Biotechnology; cat. no. SC7819-P) using an established immunoperoxidase protocol and tissue sections were processed concurrently to minimize inter-replication variability (Haberman et al., 2009). The anti-SOM antiserum can detect somatostatin. Briefly, sections were washed in 0.1M phosphate-buffered saline (PBS) to remove cryoprotectant, and endogenous peroxidases were quenched in 0.3% H202 in PBS. After additional PBS washes, sections were blocked in 5% normal horse serum in PBS with 0.3% Triton. Sections were then incubated with primary antibody at a dilution of 1:1600 in PBS containing 0.15% Triton and 3% normal serum for 72 hours at 4° C. with agitation. […] The secondary antibody was detected with avidin-biotin complex (ABC Elite; Vector Laboratories Inc., Burlingame, Calif.) and the avidin-biotin complex was visualized with nickel-enhanced diaminobenzadine (Vector Laboratories Inc., Burlingame, Calif.). […]
Interneuron quantification was performed using a Zeiss Axioplan 2 microscope equipped with a motorized stage. […] Neuron counts were analyzed as the total number of hilar interneurons per hippocampal section for each rat.

[2] = tested on: reelin in Entorhinal Cortex (EC2); experiment: Reelin mRNA in situ hybridization in entorhinal cortex (EC2); conditions: 10 mg/kg/day for 28 days; vs AI-VEH p=0.033

In the case of `CC[C@@H](C(N)=O)N1CCCC1=O` [levetiracetam, (2S)-2-(2-oxopyrrolidin-1-yl)butanamide], the “time spent in the target quadrant (percentage of total swimming time)” value ([1]; levetiracetam 5 mg/kg/day i.p., vs vehicle) is reported as “did not significantly improve”, the “time spent in the target annulus” value ([1]; levetiracetam 10 mg/kg/day i.p., retention trial) is reported as “effectiveness of the 10 mg/kg/day levetiracetam treatment was also seen” and the “time spent in the target quadrant (percentage of total swimming time)” value ([1]; levetiracetam 10 mg/kg/day i.p.) is reported as “approximately 35%”. For the same molecule, the DG/CA3 hyperactivity (DG/CA3 of aMCI subjects; levetiracetam 62.5 mg BID cohort) was “does not significantly reduce”, the “DG/CA3 activity during lure stimuli correctly identified as similar” value (DG/CA3 of aMCI subjects; levetiracetam 125 mg twice a day for two weeks, vs placebo, p=0.037) was “reduces DG/CA3 hyper-activity” and the DG/CA3 hyperactivity (DG/CA3 of aMCI subjects; levetiracetam 250 mg BID cohort) was “does not significantly reduce”. For the same molecule, the “levels of somatostatin in DG hilus (SOM-immunoreactive hilar neurons)” value (somatostatin in DG hilus) was “restores the levels of somatostatin” and the “reelin mRNA expression in the lateral entorhinal cortex” value [2] was “significantly increased the expression of reelin”.
